≈ marks a conversion by molar mass, not a printed value.
How the values were obtained:
[1] = DPPH˙ radical scavenging assay
In short: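 Compounds from 1 mg/mL DMSO stocks tested at various concentrations against DPPH˙, following Brand-Williams. Scavenging followed as absorbance decrease at 517 nm by spectrophotometer; triplicate determinations, averaged.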

[2] = Fe^2+ chelation assay (ferrozine competition)
In short: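 Fe²⁺ chelation by competition with ferrozine, with absorbance read at 562 nm against a blank. Chelation % = (control − sample absorbance)/control absorbance × 100.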

[3] = Phosphomolybdate assay for total antioxidant capacity (TAC); design: concentration or dose not given beside the values; settings: for TAC, % of Activity of Trolox: relative to Trolox; for TAC, % of Activity of Ascorbic Acid: relative to ascorbic acid
Source text: Using the phosphomolybdate assay, we determined the total antioxidant capacity (TAC) of the tested compounds. We measured the solutions’ absorbances against a blank sample at λ = 695 nm, using a previously reported procedure by our group, based on initial literature reports. Using Equation (4), we calculated the TAC of 5a–d and 6a–d compounds.
At acidic pH, the tested compounds transfer one electron to Mo^6+ to reduce it to Mo^5+.

[4] = Cu^2+ chelation assay (murexide competition)
In short: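 Cu^2+ chelation measured spectrophotometrically by competition with the chromophoric chelator murexide. Chelation (%) calculated from the A485/A520 absorbance ratio of sample relative to control.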

[5] = ABTS˙+ radical scavenging assay
Method: The stock solutions (1 mg/mL) of the tested compounds and the controls were obtained, by dissolving the substances in dimethyl sulfoxide (DMSO). Using Jasco V-530, an UV-VIS spectrophotometer (Jasco International Co., Ltd., Tokyo, Japan), we performed the colorimetric determinations in low-volume single-use 10 mm width cuvettes.
The assays were performed in triplicate and the results are presented as averages for each assay.

[6] = Cupric reducing antioxidant capacity (CUPRAC) assay; design: concentration or dose not given beside the values; settings: for CUPRAC, % of Activity of Trolox: relative to Trolox; for CUPRAC, % of Activity of Ascorbic Acid: relative to ascorbic acid
Method: The ability to donate electrons was evaluated for the compounds 5a–d and 6a–d, by the CUPRAC (CUPric reducing antioxidant capacity) method. The absorbance was measured against a blank sample, at λ = 450 nm. The assay was performed based on our group’s previous report by the adaptation of the initial report of Alam et al., Özyürek et al. and Apak et al.. With the use of Equation (4), the cupric ion reduction by compounds 5a–d and 6a–d was expressed as a percentage of the reference compound activity.
The Cu^2+ ions are reduced to Cu^+ ions by the electron-donating compounds. The Cu^+ ions are chelated by neocuproine, giving a colored complex with absorbance proportional to the quantity of Cu^+ ions that resulted.

| SMILES | IC50 [1] | IC50 (DPPH˙ scavenging) [1] | % of DPPH˙ Scavenging ([1]; 1.25 µg/mL) | % of DPPH˙ Scavenging ([1]; 2.5 µg/mL) | % of DPPH˙ Scavenging ([1]; 3.75 µg/mL) | % of DPPH˙ Scavenging ([1]; 5 µg/mL) | % of DPPH˙ Scavenging ([1]; 7.5 µg/mL) | % of DPPH˙ Scavenging ([1]; 10 µg/mL) | % of DPPH˙ Scavenging ([1]; 12.5 µg/mL) | % of DPPH˙ Scavenging ([1]; 15 µg/mL) | Ferrous ions Chelation Capacity (%) ([2]; 17.70 µg/mL) | Ferrous ions Chelation Capacity (%) ([2]; 20.59 µg/mL) | Ferrous ions Chelation Capacity (%) ([2]; 29.41 µg/mL) | Ferrous ions Chelation Capacity (%) ([2]; 44.11 µg/mL) | Ferrous ions Chelation Capacity (%) ([2]; 58.82 µg/mL) | Ferrous ions Chelation Capacity (%) ([2]; 88.23 µg/mL) | Ferrous ions Chelation Capacity (%) ([2]; 117.64 µg/mL) | Ferrous ions Chelation Capacity (%) ([2]; 257.46 µg/mL) | Ferrous ions Chelation Capacity (%) ([2]; 343.28 µg/mL) | TAC, % of Activity of Trolox [3] | other results |
| --- | --- | --- | --- | --- | --- | --- | --- | --- | --- | --- | --- | --- | --- | --- | --- | --- | --- | --- | --- | --- | --- |
| CCCCn1c(SCC(=O)NN=Cc2ccc(O)c(O)c2O)nc2ccccc2c1=O [Compound 5d, 2-((3-Butyl-4-oxo-3,4-dihydroquinazolin-2-yl)thio)-N’-(2,3,4-trihydroxybenzylidene)acetohydrazide] | 4.93 µM | 2.18 µg/mL (≈ 4.93 µM) | 41.12% | 53.03% | 63.53% | 71.70% | 87.99% | + (+ represents more than 95%) | + (+ represents more than 95%) | + (+ represents more than 95%) | - (- represents less than 5%) | - (- represents less than 5%) | - (- represents less than 5%) | - (- represents less than 5%) | - (- represents less than 5%) | - (- represents less than 5%) | 58.18% | 71.56% | 80.50% | 117.87% | TAC, % of Activity of Ascorbic Acid [3]: 61.09%; Cupric ions Chelation Capacity (%) ([4]; 3.36 µg/mL): 14.19%; Cupric ions Chelation Capacity (%) ([4]; 8.40 µg/mL): 28.04%; Cupric ions Chelation Capacity (%) ([4]; 16.80 µg/mL): 41.42%; melting point: 239 °C; IC50 [5]: 3.5 µM; IC50 (ABTS˙^+ scavenging) [5]: 1.55 µg/mL (≈ 3.5 µM); % of ABTS˙^+ Scavenging ([5]; 0.83 µg/mL): 41.98%; % of ABTS˙^+ Scavenging ([5]; 1.67 µg/mL): 52.25%; % of ABTS˙^+ Scavenging ([5]; 3.33 µg/mL): 67.46%; % of ABTS˙^+ Scavenging ([5]; 4.99 µg/mL): 81.06%; % of ABTS˙^+ Scavenging ([5]; 6.66 µg/mL): + (+ represents more than 95%); % of ABTS˙^+ Scavenging ([5]; 9.99 µg/mL): + (+ represents more than 95%); % of ABTS˙^+ Scavenging ([5]; 13.32 µg/mL): + (+ represents more than 95%); CUPRAC, % of Activity of Trolox [6]: 106.43%; CUPRAC, % of Activity of Ascorbic Acid [6]: 111.66% |
| CCCCn1c(SCC(=O)NN=C(C)c2ccc(O)cc2O)nc2ccccc2c1=O [Compound 6d, 2-((3-butyl-4-oxo-3,4-dihydroquinazolin-2-yl)thio)-N’-(1-(2,4-dihydroxyphenyl)ethylidene)acetohydrazide] | > 30 µM | >15 µg/mL | - (- represents less than 5%) | - (- represents less than 5%) | - (- represents less than 5%) | - (- represents less than 5%) | - (- represents less than 5%) | - (- represents less than 5%) | 10.99% | 13.87% | - (- represents less than 5%) | - (- represents less than 5%) | - (- represents less than 5%) | - (- represents less than 5%) | - (- represents less than 5%) | - (- represents less than 5%) | - (- represents less than 5%) | - (- represents less than 5%) | - (- represents less than 5%) | 76.63% | TAC, % of Activity of Ascorbic Acid [3]: 39.72%; Cupric ions Chelation Capacity (%) ([4]; 3.36 µg/mL): 5.98%; Cupric ions Chelation Capacity (%) ([4]; 8.40 µg/mL): 11.84%; Cupric ions Chelation Capacity (%) ([4]; 16.80 µg/mL): 20.42%; melting point: 225 °C; IC50 [5]: 11.7 µM; IC50 (ABTS˙^+ scavenging) [5]: 5.17 µg/mL (≈ 11.7 µM); % of ABTS˙^+ Scavenging ([5]; 0.83 µg/mL): 29.08%; % of ABTS˙^+ Scavenging ([5]; 1.67 µg/mL): 33.32%; % of ABTS˙^+ Scavenging ([5]; 3.33 µg/mL): 40.37%; % of ABTS˙^+ Scavenging ([5]; 4.99 µg/mL): 50.24%; % of ABTS˙^+ Scavenging ([5]; 6.66 µg/mL): 57.59%; % of ABTS˙^+ Scavenging ([5]; 9.99 µg/mL): 75.41%; % of ABTS˙^+ Scavenging ([5]; 13.32 µg/mL): 85.79%; CUPRAC, % of Activity of Trolox [6]: 11.25%; CUPRAC, % of Activity of Ascorbic Acid [6]: 11.80% |
| C=CCn1c(SCC(=O)NN=C(C)c2ccc(O)cc2O)nc2ccccc2c1=O [Compound 6a, 2-((3-Allyl-4-oxo-3,4-dihydroquinazolin-2-yl)thio)-N’-(1-(2,4-dihydroxyphenyl)ethylidene)acetohydrazide] | > 30 µM | >15 µg/mL | - (- represents less than 5%) | - (- represents less than 5%) | - (- represents less than 5%) | - (- represents less than 5%) | - (- represents less than 5%) | - (- represents less than 5%) | 12.28% | 21.34% | - (- represents less than 5%) | - (- represents less than 5%) | - (- represents less than 5%) | - (- represents less than 5%) | - (- represents less than 5%) | - (- represents less than 5%) | - (- represents less than 5%) | - (- represents less than 5%) | - (- represents less than 5%) | 94.38% | TAC, % of Activity of Ascorbic Acid [3]: 48.91%; Cupric ions Chelation Capacity (%) ([4]; 3.36 µg/mL): 10.96%; Cupric ions Chelation Capacity (%) ([4]; 8.40 µg/mL): 20.64%; Cupric ions Chelation Capacity (%) ([4]; 16.80 µg/mL): 31.79%; melting point: 230 °C; IC50 [5]: 16.9 µM; IC50 (ABTS˙^+ scavenging) [5]: 7.17 µg/mL (≈ 16.9 µM); % of ABTS˙^+ Scavenging ([5]; 0.83 µg/mL): 27.03%; % of ABTS˙^+ Scavenging ([5]; 1.67 µg/mL): 30.08%; % of ABTS˙^+ Scavenging ([5]; 3.33 µg/mL): 37.19%; % of ABTS˙^+ Scavenging ([5]; 4.99 µg/mL): 42.27%; % of ABTS˙^+ Scavenging ([5]; 6.66 µg/mL): 50.03%; % of ABTS˙^+ Scavenging ([5]; 9.99 µg/mL): 60.55%; % of ABTS˙^+ Scavenging ([5]; 13.32 µg/mL): 70.24%; CUPRAC, % of Activity of Trolox [6]: 12.83%; CUPRAC, % of Activity of Ascorbic Acid [6]: 13.46% |
